Data published in US10656089B2, “Systems, devices, and methods for time-resolved fluorescent spectroscopy” (Black Light Surgical, Inc., priority 2016, dated 2020).

System: NADH levels in ex vivo brain sample (cortex)
Assay: continuous monitoring of NADH in an ex vivo brain sample by time-resolved fluorescence spectroscopy
Settings: rabbit cortex ex vivo
Protocol: Changes in NADH level were assessed to determine changes in the metabolic status of the brain sample in response to oxygen depletion, stimulation with neuro-protective drugs, and other stimuli. During ATP production in aerobic respiration conditions, NADH is oxidized to NAD+. In low oxygen conditions, for example, in areas of hypoxia or ischemia after a stroke, NADH accumulates in cells and persistent oxygen depletion can lead to cell death and breakdown of NADH. The different NADH states and levels may allow for the assessment of the viability and vulnerability of cells in an ischemic environment. Fluctuations in NADH levels were evaluated by measuring the fluorescence emission from NADH […]. […]
The system comprised a Q-switched ND:YaG laser (Teem Photonics PNVM02510) 1804 running at 1 KHz which emitted laser pulse at a wavelength of about 350 nm and a pulse width of about 400 ps full width half maximum (FWHM). […] The probe 1800 comprised a central 600 um fiber 1805 to deliver the excitation light surrounded by twelve 200 um fibers to collect the responsive fluorescence signal. […] One bundle of collection fibers 1806a was coupled to a spectrometer (Ocean Optics, Maya) which monitored the fluorescence spectrum every 100 ms. […]

Structure (SMILES): C=C(C)[C@H]1Cc2c(ccc3c2O[C@@H]2COc4cc(OC)c(OC)cc4[C@@H]2C3=O)O1 [rotenone]
- NADH levels (free and bound NADH fluorescence) (50 nM rotenone added to Kreb-Ringer bath after about 30 minutes baseline): increased NADH levels
- NADH fluorescence detected (additional rotenone doses of 1 uM and 50 uM added at 10 minute intervals): further increases in fluorescence detected
